Measurements reported in ChEMBL document CHEMBL4177672 (Bioorg Med Chem Lett, 2017).
≈ marks a conversion by molar mass, not a printed value.

These molecules were tested on Homo sapiens (assay: Terminal half life in healthy human subjects dosed as single 400 mg dose on Day 1 followed by PK sampling (Days 1 to 14)). Conditions: in vivo.
Assay type: ADME, organism-based
For `COc1nc2ccc(Br)cc2cc1[C@@H](c1ccccc1)[C@@](O)(CCN(C)C)c1cccc2ccccc12` [BEDAQUILINE], the beta t1/2 was 5 to 6 months.

The molecules below were run on Vero (assay: Cytotoxicity against African green monkey Vero cells after 72 hrs by MTS-PMS assay). Conditions: Chlorocebus sabaeus.
Assay type: cell-based
With `COc1nc2ccc(Br)cc2cc1[C@@H](c1ccc(N(C)C)nc1)[C@@](O)(CCN(C)C)c1cccc(F)c1` the IC50 was > 10 µg/mL.
With `COc1nc2ccc(Br)cc2cc1[C@@H](c1cccnc1N(C)C)[C@@](O)(CCN(C)C)c1cccc(F)c1` the IC50 was > 10 µg/mL.
For `COc1nc2ccc(Br)cc2cc1[C@@H](c1cc(C)c(C)s1)[C@@](O)(CCN(C)C)c1cccc(F)c1`, the IC50 was > 10 µg/mL.
`COc1nc2ccc(Br)cc2cc1[C@@H](c1cncc(C)c1)[C@@](O)(CCN(C)C)c1cccc(F)c1` was tested, and the IC50 was > 10 µg/mL.
In the case of `COc1nc2ccc(Br)cc2cc1[C@@H](c1ccnc(OC)c1OC)[C@@](O)(CCN(C)C)c1cccc(C#N)c1`, the IC50 is reported as > 10 µg/mL.
With `CCSc1ccc([C@H](c2cc3cc(Br)ccc3nc2OC)[C@@](O)(CCN(C)C)c2cccc(F)c2)cn1` the IC50 was > 10 µg/mL.
For `COc1nc2ccc(Br)cc2cc1[C@@H](c1ccnc(OC)c1OC)[C@@](O)(CCN(C)C)c1cccc(C)c1`, the IC50 was > 10 µg/mL.
In the case of `COc1nc2ccc(Br)cc2cc1[C@@H](c1ccnc(OC)c1OC)[C@@](O)(CCN(C)C)c1cccc(OC(F)F)c1`, the IC50 is reported as > 10 µg/mL.
For `COc1cc([C@H](c2cc3cc(Br)ccc3nc2OC)[C@@](O)(CCN(C)C)c2cccc(F)c2)cnc1OC`, the IC50 was > 10 µg/mL.
`COc1nc2ccc(Br)cc2cc1[C@@H](c1ccccc1)[C@@](O)(CCN(C)C)c1cccc2ccccc12` [BEDAQUILINE] was tested, and the IC50 was > 10 µg/mL.

The molecules below were run on Mycolicibacterium smegmatis (assay: Antitubercular activity against Mycobacterium smegmatis ATCC 607 incubated at 37 degC for 7 days by resazurin dye based fluorometry). Conditions: ATCC 607, 168 h.
Assay type: functional
`COc1nc2ccc(Br)cc2cc1C(c1ccoc1)C(O)(CCN(C)C)c1ccccc1` (racemic) gave an IC90 of 0.06 to 1.57 µg/mL (≈ 0.121 to 3.17 µM).

The molecules below were run on Mycobacterium tuberculosis (assay: Growth inhibition of Mycobacterium tuberculosis H37Rv under aerobic condition after 4 days by MABA method). Conditions: 96 h.
Assay type: functional
`COc1ncccc1C(c1cc2cc(Br)ccc2nc1OC)C(O)(CCN(C)C)c1cccc2c1OCO2` (mixture of isomers) gave an MIC90 of 0.24 µg/mL.
